Measured values reported in patent US8637549B2, “Pyridons as PDK1 inhibitors” (Boehringer Ingelheim International GmbH, priority 2008, dated 2014).
Marks after values point to notes of the source that are not given here.

Assays:
[1] = molecular target: T1, ΔPH-PDK1 (shortened PDK1 enzyme aa 51-359; Q66A mutation) (Homo sapiens, UniProt O15530, Q66A); experiment: PDK1 kinase assay II; format: biochemical; conditions: 10 μM compound, residual enzyme activity relative to DMSO control, values marked with asterisk (*)
T1 construct: a shortened PDK1 enzyme (aa 51-359; Q66A mutation) is used; His6 (N, cleaved yes); made in house
T1 sequence (O15530 51-359 Q66A): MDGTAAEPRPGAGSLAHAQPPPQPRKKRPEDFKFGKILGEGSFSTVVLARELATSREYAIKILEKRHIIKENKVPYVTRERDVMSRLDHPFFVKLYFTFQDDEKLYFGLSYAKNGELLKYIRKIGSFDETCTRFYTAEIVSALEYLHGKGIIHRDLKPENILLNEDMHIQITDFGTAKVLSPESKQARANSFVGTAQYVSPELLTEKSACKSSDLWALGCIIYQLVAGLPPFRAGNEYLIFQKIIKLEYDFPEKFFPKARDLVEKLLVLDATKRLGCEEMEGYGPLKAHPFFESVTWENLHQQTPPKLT
Description: Another assay was developed in which a shortened PDK1 enzyme (aa 51-359; Q66A mutation) is used that carries in the N-terminal position a His6 tag that is cleaved during purification. (ΔPH-PDK1). […]
The reaction is started by adding the ATP solution and the mixture is incubated for 120 min at ambient temperature; at the start of the reaction the dishes are shaken gently. […] Then the plate is stuck down with sealing tape, 25 μL/well of scintillation solution (Microscint 0; Messrs. Perkin Elmer; No. 6013611) are added and the amount of P33 precipitated is measured using the Wallac Betacounter. The measured data are evaluated using Graphpad Prism software.
(§1) The % CTL values indicate the residual activity of the enzyme after the addition of the inhibitory compound in the solvent DMSO in relation to the enzyme activity in the solvent DMSO without the addition of a compound (control). The majority of the values were determined using the PDK1 kinase assay III described hereinbefore. The values marked with an asterisk (*) were determined using the PDK1 kinase assay II described hereinbefore.

His6-PDK1 (aa 52-556) = molecular target: T2, His6-PDK1 (aa 52-556) (Homo sapiens, UniProt O15530); experiment: PDK1 kinase assay III (with Tween 20); format: biochemical; conditions: 10 μM compound, residual enzyme activity relative to DMSO control, unmarked values, read-out: % CTL
T2 construct: 15 μL His6-PDK1 (aa 52-556) 3.33 ng/well) and PDKtide; host or cells: baculovirus-infected insect cells
T2 sequence (O15530 52-556): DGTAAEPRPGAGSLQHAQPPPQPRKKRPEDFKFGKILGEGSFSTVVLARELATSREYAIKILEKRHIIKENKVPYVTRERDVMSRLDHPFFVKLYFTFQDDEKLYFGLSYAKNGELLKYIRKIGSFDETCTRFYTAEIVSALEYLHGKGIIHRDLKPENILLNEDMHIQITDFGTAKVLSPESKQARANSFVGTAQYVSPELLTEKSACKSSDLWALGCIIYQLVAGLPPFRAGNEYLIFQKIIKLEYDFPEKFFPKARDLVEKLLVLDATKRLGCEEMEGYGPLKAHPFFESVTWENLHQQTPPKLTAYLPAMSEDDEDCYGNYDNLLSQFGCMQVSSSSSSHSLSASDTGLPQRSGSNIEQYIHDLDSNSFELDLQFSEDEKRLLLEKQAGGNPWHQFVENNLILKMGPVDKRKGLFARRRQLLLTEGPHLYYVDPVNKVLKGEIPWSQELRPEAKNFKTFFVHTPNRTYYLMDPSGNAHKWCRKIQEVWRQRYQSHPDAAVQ
Description: Another PDK1 assay was developed which by comparison with PDK1 assay 1 additionally contains Tween 20:
The following components are combined in a well of a 96-well round-based dish (Messrs. Greiner bio-one, No. 650101): • 15 μL of compound to be tested in varying concentrations (e.g. Starting at 10 μM, and diluted in steps of 1:5) in APT buffer (50 mM tris/C1 pH7.5; 0.05% β-mercaptoethanol; 10 mM Mg-acetate; 0.0166% Tween 20; 3.33% DMSO) • 15 μL His6-PDK1 (aa 52-556) 3.33 ng/well) and PDKtide (KTFCGTPEYLAPEVRRE […]), synthesised by Pepceuticals Limited, Nottingham, United Kingdom; 25 μM final concentration); His6-PDK1 and PDKtide are together diluted accordingly in assay buffer (50 mM tris pH 7.5, 0.05% β-mercaptoethanol, 10 mM Mg-acetate); PDKtide is present in this mixture as an 83.3 μM solution. These 30 μL are routinely incubated for 30 min at RT. • 20 μL ATP solution (25 μM ATP with 1.0 μCi/well gamma-P33-ATP). The final concentration of Tween 20 is 0.005%.
The reaction is started by adding the ATP solution and the mixture is incubated for 90 min at ambient temperature; at the start of the reaction the dishes are shaken gently. The reaction is stopped by the addition of 50 μL/well of 500 mM phosphoric acid (H3PO4) and incubated for about 20 min at ambient temperature. The precipitate is transferred by harvesting onto filter plates (96-well microtitre filter plate: UniFilter GF/C; Messrs Perkin Elmer; No. 6005174), then washed 6 times with 50 mM H3PO4 and dried at 60° C. Then the plate is stuck down with sealing tape, 25 μL/well of scintillation solution (Microscint 0; Messrs. Perkin Elmer; No. 6013611) are added and the amount of P33 precipitated is measured using the Wallac Betacounter. The measured data are evaluated using Graphpad Prism software.
as §1

With `CN(C)Cc1ccc(Nc2ncc3cc(C#CCNC(=O)c4cccn(Cc5cccnc5)c4=O)ccc3n2)cc1` [II-5, N-{3-[2-({4-[(dimethylamino)methyl]phenyl}amino)quinazolin-6-yl]prop-2-yn-1-yl}-2-oxo-1-(pyridin-3-ylmethyl)-1,2-dihydropyridine-3-carboxamide] the “% CTL” value [1] was 15.6* %.

In the case of `CN1CCC(N(C)c2ccc(Nc3ncc4cc(C#CCNC(=O)c5cccn(Cc6ccc(C(F)(F)F)nc6)c5=O)ccc4n3)cc2)CC1` [II-8, N-{3-[2-({4-[methyl(1-methylpiperidin-4-yl)amino]phenyl}amino)quinazolin-6-yl]prop-2-yn-1-yl}-2-oxo-1-{[6-(trifluoromethyl)pyridin-3-yl]methyl}-1,2-dihydropyridine-3-carboxamide], the “% CTL” value [1] is reported as 47.0* %.

`CN1CCC(N(C)c2ccc(Nc3ncc4cc(/C=C/CNC(=O)c5cccn(Cc6ccc(C(F)(F)F)nc6)c5=O)ccc4n3)cc2)CC1` [III-15, N-{(2E)-3-[2-({4-[methyl(1-methylpiperidin-4-yl)amino]phenyl}amino)quinazolin-6-yl]prop-2-en-1-yl}-2-oxo-1-{[6-(trifluoromethyl)pyridin-3-yl]methyl}-1,2-dihydropyridine-3-carboxamide] gave a remaining activity at 10 µM (His6-PDK1 (aa 52-556)) of 21%.

Work on `CN(C)Cc1ccc(Nc2ncc3cc(/C=C/CNC(=O)c4cccn(Cc5ccc(C(F)(F)F)nc5)c4=O)ccc3n2)cc1` [III-16, N-{(2E)-3-[2-({4-[(dimethylamino)methyl]phenyl}amino)quinazolin-6-yl]prop-2-en-1-yl}-2-oxo-1-{[6-(trifluoromethyl)pyridin-3-yl]methyl}-1,2-dihydropyridine-3-carboxamide] yielded a remaining activity at 10 µM (His6-PDK1 (aa 52-556)) of 19.2%.
